Assay results from US20080051463A1, “ANTHRACENE COMPOUNDS AND THEIR USE FOR TREATING BENIGN AND MALIGNANT TUMOR DISORDERS” (AETERNA ZENTARIS GmbH, priority 2006, published 2008).
≈ marks a conversion by molar mass, not a printed value. Where “and” joins values, the source holds several entries; their conditions need not be identical. Identical values can stand only once.

Experiments:
[1] = test system: RKOp27 human colon carcinoma cells; test: Proliferation test, RKOp27 cell system without p27kiP1 expression; format: cell-based; conditions: RKOp27 without expression of p27kiP1
Text: (§1) The antiproliferative activity of the compounds 1, 2, 4, 6, 7, 9, 10, 11, 12 and 13 according to the invention was investigated in a proliferation test performed on established tumor cell lines (D. A. Scuderio et al. Cancer Res. 1988, 48: 4827-4833).
(§2) The test used determines the cellular dehydrogenase activity and makes it possible to determine cell viability and determine cell number indirectly.
(§3) The cell lines used are the human cervical carcinoma cell line KB/HeLa (ATCC CCL17), the ovarian adenocarcinoma cell line SKOV-3 (ATCC HTB77), the human glioblastoma cell line SF-268 (NCI-503138) and the lung carcinoma cell line NCI-H460 (NCI-503473). In addition, an RKOp27 cell system was used for investigating the cell cycle-specific effect of the substance (M. Schmidt et al. Oncogene 2000, 19(20): 2423-9).
(§4) RKO is a human colon carcinoma line in which expression of the cell cycle inhibitor p27^kiP1 can be induced using the ecdysone expression system and lead to cell cycle arrest specifically in […].
(§5) By contrast, cell cycle-specific substances, such as, for example, tubulin inhibitors, are only cytotoxic when cells are not arrested and the cell cycle is passed through.

[2] = test system: ovarian adenocarcinoma cell line SKOV-3; test: Proliferation test (cellular dehydrogenase activity), SK-OV-3; format: cell-based; conditions: Homo sapiens
Text: as §1, §2, §3

[3] = test system: T1, porcine brain tubulin; test: Inhibition of the polymerization of porcine brain tubulin (turbidimetric); format: biochemical; conditions: porcine brain tubulin with about 15% MAPs, GTP, 37° C.
T1 construct: In addition to tubulin, the protein used comprises about 15% of associated proteins (MAPs)
Protocol: b) In an in vitro test, the compounds 1, 2, 4 and 7 were tested for inhibition of the polymerization of porcine brain tubulin. In this test, tubulin purified by polymerization and depolymerization cycles is used (Shelanski et al. Proc. Natl. Acad. Sci. U.S.A. 1973, 70, 765-768 modified according to Vater et al. Acta Histochem. Suppl. 1986, 33, 123-129), which is polymerized by addition of GTP and heating to 37° C. In addition to tubulin, the protein used comprises about 15% of associated proteins (MAPs). The measurement values were determined turbidimetrically according to Gaskin et al. J. Mol. Biol. 89 (1974) 737-755.
Table 3 states the EC50 value of the polymerization inhibition.

[4] = test system: human glioblastoma cell line SF-268; test: Proliferation test (cellular dehydrogenase activity), SF-268; format: cell-based
Text: as §1, §2, §3

[5] = test system: human cervical carcinoma cell line KB/HeLa; test: Proliferation test (cellular dehydrogenase activity), KB/HeLa; format: cell-based
Text: as §1, §2, §3

[6] = test system: lung carcinoma cell line NCI-H460; test: Proliferation test (cellular dehydrogenase activity), NCI-H460; format: cell-based; conditions: Homo sapiens
Text: as §1, §2, §3

[7] = test system: RKOp27 human colon carcinoma cells, p27kiP1 induced; test: Proliferation test, RKOp27 cell system with induced p27kiP1 expression; format: cell-based; conditions: RKOp27 with induced expression of p27kiP1, read-out: RKOP27ind EC50
Text: as §1, §2, §3, §4, §5

[8] = test system: murine P388 cell line; test: XTT antiproliferative test, P388; format: cell-based; conditions: P388 wild type
Text: (§6) For further characterization, the compounds 6 and 7 according to the invention were investigated with regard to multidrug-resistant (MDR) cell lines as compared with the nonresistant wild-type cell lines.
(§7) The murine P388 cell line (methylcholanthrene-induced lymphoid neoplasm) [R. Supino et al.; Inst. Nazionale per lo Studio e las cura die Tumori; Milan)] and the doxorubicin-resistant P388 cell line (NSC-123127) were also included as test systems.

[9] = test system: doxorubicin-resistant P388 cell line; test: XTT antiproliferative test, doxorubicin-resistant P388; format: cell-based, murine
Text: as §6, §7

[10] = test system: murine cell line L1210; test: XTT antiproliferative test, L1210; format: cell-based; conditions: L1210 wild type
Text: as §6
(§8) The cell lines which were investigated are the murine cell line L1210 (ATCC CCL219), the acute myeloid leukaemia cell line LT12 (De Vries et al.; University Rotterdam) and the resistant lines L1210/VCR (Asta Medica Laboratory) and LT12/mdr (De Vries et al.; University Rotterdam).

[11] = test system: bovine tubulin; test: Inhibition of the polymerization of bovine tubulin (in vitro); format: biochemical; conditions: for Inhibition at 10 μg/ml [%]: tubulin with 30% associated proteins (MAPs), repeat values; for EC50 of polymerization inhibition of tubulin: bovine tubulin with 30% associated proteins (MAPs)
Text: In this test, tubulin purified by polymerization and depolymerization cycles is used, which is polymerized by addition of GTP and heating.
Table 1 states the %-inhibition values and Table 2 states the EC50 values of polymerization inhibition of tubulin with 30% associated proteins (MAPs).

[12] = test system: acute myeloid leukaemia cell line LT12; test: XTT antiproliferative test, LT12; format: cell-based; conditions: LT12 wild type
Text: as §6, §8

Row | SMILES | melting point | EC50 [1] | EC50 [5] | EC50 [6] | EC50 [7] | Inhibition at 10 μg/ml [%] [11] | further results
1 | COc1csc(C(=O)C=C2c3ccccc3C(=O)c3ccccc32)c1 [Compound 2, 10-[2-(4-methoxy-thiophen-2-yl)-2-oxo-ethylidene]-10H-anthracen-9-one] | 200 to 201 °C | 0.802 µg/mL (≈ 2.32 µM) | 0.248 µg/mL (≈ 0.716 µM) | 0.931 µg/mL (≈ 2.69 µM) | > 3.16 µg/mL |  | EC50 [2]: 0.416 µg/mL (≈ 1.2 µM); EC50 of the polymerization inhibition [3]: 2.3 µg/mL; EC50 [4]: 0.331 µg/mL (≈ 0.956 µM)
2 | O=C1c2ccccc2C(=CC(=O)N2CCSCC2)c2ccccc21 [Compound 3, 10-(2-oxo-2-thiomorpholin-4-ylethylidene)-10H-anthracen-9-one] | 177 to 178 °C |  |  |  |  |  | 
3 | COc1ccc(C(=O)C=C2c3ccccc3C(O)c3ccccc32)cc1 (stereo not drawn) [Compound 4, 2-(10-hydroxy-10H-anthracen-9-ylidene)-1-(4-methoxy-phenyl)-ethanone] | 169 to 172 °C | 0.108 µg/mL (≈ 0.315 µM) | 0.181 µg/mL (≈ 0.529 µM) | 0.203 µg/mL (≈ 0.593 µM) | > 3.16 µg/mL |  | EC50 [2]: 0.171 µg/mL (≈ 0.499 µM); EC50 of the polymerization inhibition [3]: 1.2 µg/mL; EC50 [4]: 0.227 µg/mL (≈ 0.663 µM)
4 | COc1ccc(N2CCN(C(=O)C=C3c4ccccc4C(=O)c4ccccc43)CC2)cc1 [Compound 5, 10-{2-[4-(4-methoxy-phenyl)-piperazin-1-yl]-2-oxo-ethylidene}-10H-anthracen-9-one] | 189 to 190 °C |  |  |  |  |  | 
5 | COc1ccc(C(=O)C=C2c3ccccc3C(=O)c3ccccc32)cc1OC [Compound 6, 10-[2-(3,4-dimethoxy-phenyl)-2-oxo-ethylidene]-9(10H)-anthracenone] | 160 °C | 0.24 µg/mL (≈ 0.648 µM) | 0.458 µg/mL (≈ 1.24 µM) | 0.29 µg/mL (≈ 0.783 µM) | > 3.16 µg/mL | 68.9% and 86.1% and 99.0% | IC50 ([8]; Mus musculus, P388, XTT): 0.35 µg/mL (≈ 0.945 µM); P388 IC50 ([8]; XTT): 0.39 µg/mL; IC50 ([9]; Mus musculus, P388, XTT, read-out: P388ADR IC50): 0.25 µg/mL (≈ 0.675 µM); P388ADR IC50 ([9]; XTT): 0.49 µg/mL; IC50 ([10]; Mus musculus, L1210, XTT): 0.32 µg/mL (≈ 0.864 µM); L1210 IC50 ([10]; XTT): 0.35 µg/mL; IC50 ([12]; Rattus norvegicus, LT12, XTT): 0.1 µg/mL (≈ 0.27 µM); LT12 IC50 ([12]; XTT): 0.17 µg/mL
6 | COc1ccc(C(=O)C=C2c3ccccc3C(=O)c3ccccc32)c(O)c1OC [Compound 8, 10-[2-(2-hydroxy-3,4-dimethoxy-phenyl)-2-oxo-ethylidene]-10H-anthracen-9-one] | 176 to 178 °C |  |  |  |  |  | 
7 | Cc1ccc(C(=O)C=C2c3ccccc3C(=O)c3ccccc32)cc1 [Compound 9, 10-(2-oxo-2-p-tolyl-ethylidene)-10H-anthracen-9-one] | 129 °C | 0.09 µg/mL (≈ 0.277 µM) | 0.2 µg/mL (≈ 0.617 µM) | 0.11 µg/mL (≈ 0.339 µM) | > 3.16 µg/mL | 98.3% and 99.8% and 100.0% | EC50 [2]: 0.13 µg/mL (≈ 0.401 µM); EC50 [4]: 0.2 µg/mL (≈ 0.617 µM); EC50 of polymerization inhibition of tubulin [11]: 0.49 µg/mL
8 | O=C(C=C1c2ccccc2C(=O)c2ccccc21)c1ccc(O)cc1 [Compound 10, 10-[2-(4-hydroxy-phenyl)-2-oxo-ethylidene]-10H-anthracen-9-one] | 211 to 212 °C | 1.38 µg/mL (≈ 4.23 µM) | 2.65 µg/mL (≈ 8.12 µM) | 1.34 µg/mL (≈ 4.11 µM) | > 3.16 µg/mL | 85.0% and 94.8% and 98.4% and 98.6% | EC50 of polymerization inhibition of tubulin [11]: 4.87 µg/mL
9 | O=C(C=C1c2ccccc2C(=O)c2ccccc21)c1cccs1 [Compound 11, 10-(2-oxo-2-thiophen-2-yl-ethylidene)-10H-anthracen-9-one] | 126 °C |  | 2.65 µg/mL (≈ 8.38 µM) | 1.05 µg/mL (≈ 3.32 µM) | > 3.16 µg/mL |  | 
10 | O=C(C=C1c2ccccc2C(=O)c2ccccc21)c1cccc(O)c1 [Compound 12, 10-[2-(3-hydroxy-phenyl)-2-oxo-ethylidene]-10H-anthracen-9-one] | 185 °C | 0.63 µg/mL (≈ 1.93 µM) | 1.4 µg/mL (≈ 4.29 µM) | 0.61 µg/mL (≈ 1.87 µM) | > 3.16 µg/mL | 83.1% and 95.0% and 92.7% and 86.9% | EC50 [2]: 3.03 µg/mL (≈ 9.28 µM); EC50 [4]: 2.22 µg/mL (≈ 6.8 µM)
11 | COc1cccc(C(=O)C=C2c3ccccc3C(=O)c3ccccc32)c1 [Compound 13, 10-[2-(3-methoxy-phenyl)-2-oxo-ethylidne]-10H-anthracen-9-one] |  | 1.1 µg/mL (≈ 3.23 µM) | 1.89 µg/mL (≈ 5.55 µM) | 1.16 µg/mL (≈ 3.41 µM) | > 3.16 µg/mL | 72.6% and 85.9% and 87.3% and 93.7% | 
12 | COC(=O)C=C1c2ccccc2C(=O)c2ccccc21 [Compound 15, (10-oxo-10H-anthracen-9-ylidene)-acetic acid methyl ester] | 113 °C |  |  |  |  |  | 
13 | COc1cc(C(=O)C=C2c3ccccc3C(=O)c3ccccc32)cc(OC)c1OC [Compound 16, 10-[2-oxo-2-(3,4,5-trimethoxy-phenyl)-ethylidene]-10H-anthracen-9-one] | 151 to 152 °C |  |  |  |  | 65.0% and 65.5% and 61.9% | 
14 | O=C(O)C=C1c2ccccc2C(=O)c2ccccc21 [Compound 17, (10-oxo-10H-anthracen-9-ylidene)-acetic acid] | 180 to 182 °C |  |  |  |  |  | 
15 | O=C(C=C1c2ccccc2C(=O)c2ccccc21)c1ccccc1 [Compound 18, 10-(2-oxo-2-phenyl-ethylidene)-10H-anthracen-9-one] | 128 °C |  |  |  |  | 54.9% and 69.9% and 79.8% and 71.0% | 
